Measured values as given in patent EP2765189A1, “Recombinant DNA constructs and methods for controlling gene expression” (Monsanto Technology LLC, priority 2004, dated 2006).
Read-outs that look alike come from different tables or passages of the source.

Tests used:
CP4 = CP4 expression in stably transformed maize callus carrying a theophylline "off" "trans" riboswitch; assay type: cell-based; conditions: transformed cells treated with theophylline
Source text: "trans" riboswitches, similarly to the "cis" riboswitches described in Examples […], are useful in regulating transgenes. In a specific example, a transgenic plant including a "trans" riboswitch designed to regulate the glyphosate-resistance transgene CP4 as the target sequence is particularly useful in "trans" riboswitch-controlled applications parallel to that described in Example 23 (glyphosate as a ligand for ligand-activated herbicide resistance, or for control of herbicide resistant volunteers) and Example 24 (glyphosate as a chemical hybridization agent). To illustrate this approach, CP4 expression is suppressed in stably transformed maize callus. A modified transcribable DNA encoding an "off' "trans" riboswitch with theophylline as its ligand (Bayer and Smolke (2005) Nature Biotechnol., 23:337-343) is designed to target CP4 as a target sequence. Transcription of the theophylline riboswitch can be driven either by a pol II promoter (e. g., Figure 27A) or by pol III promoter (e. g., Figure 27B). The transcribable DNA is inserted into a binary vector (Figure 30) and co-transformed into maize callus under nptIII selection, generating stably transformed maize callus lines. CP4 expression is assayed in the transformed cells, where CP4 expression is observed to be suppressed in transformed cells that are treated with theophylline.

LKR/SDH = LKR/SDH expression in transformed maize cells carrying a theophylline "off" "trans" riboswitch; assay type: cell-based; conditions: transformed cells treated with theophylline
Method: Similarly, a "trans" riboswitch is used to control expression of an endogenous target sequence (lysine ketoglutarate reductase/saccharopine dehydrogenase gene, LKR/SDH) in stably transformed maize plants. A modified transcribable DNA encoding an "off' "trans" riboswitch with theophylline as its ligand (Bayer and Smolke (2005) Nature Biotechnol., 23:337-343) is designed to target at least one region of the LKR/SDH sequence, and co-transformed into maize callus. LKR/SDH expression is assayed in the resulting transformed cells, where LKR/SDH expression is observed to be suppressed in transformed cells that are treated with theophylline.

[1] = target: bacterial lysine riboswitches; conditions: in vitro, Sudarsan et al. (2003), cited from earlier work

Structure (SMILES)	CP4 expression (CP4)	LKR/SDH expression (LKR/SDH)	Kd ([1]; read-out: Kd) [mM]	Kd ([1]; same value given in ppm) [ppm]
Cn1c(=O)c2[nH]cnc2n(C)c1=O [theophylline]	suppressed	suppressed	–	–
NCCCC[C@H](N)C(=O)O [lysine]	–	–	~1	~128
